Experimental findings from publication PMC2706308 (Biochimica et biophysica acta, 2009) are described below.

Where a SMILES comes first, the peptide text is derived from it. The star is where a group is joined. Cbz = O=C(OCc1ccccc1)*

The test concerns the target 20S proteasome (rat liver) (Rattus norvegicus, UniProt P18421+P28075). Kind of test: inhibition of suc-LLVY-AMC hydrolysis. Format: biochemical. As to conditions: read-out: % inhibition at 10 uM.

The term inhibition denotes the share of the control response that was lost under treatment. Regarding `CC(C)C[C@@H](C=O)NC(=O)[C@H](CC(C)C)NC(=O)[C@H](CC(C)C)NC(=O)OCc1ccccc1` [MG-132] (Cbz-Leu-Leu-Leu-aldehyde), the inhibition at 10 µM was found to be 90%.
